We go through eight compounds from patent EP2420510B1, “Nicotinoyl peptide derivatives and cosmetic composition comprising the same” (BIO-FD&C Co., Ltd., priority 2010, dated 2013).

For one data set, the system named is Human fibroblasts. Description: Cytotoxicity test (MTT, cell growth effect). It counts as cell-based. To be noted: 100 µM, 24 hours, MTT absorbance at 570 nm relative to purified water control (=100). As for the experimental part: (§1) 50 µl of 3-(4,5-dimethylthiazol-2-yl)-2,5-diphenyltetrazolium bromide (MTT, Sigma M5655, USA) solution (2.5 mg/mℓ) was added to the culture solution, followed by further culturing for 3 hours. Then, the culture solution was centrifuged to remove a supernatant, and 200 µl of dimethylsulfoxide (DMSO, Sigma D2650, USA) was added to each well and vortexed for 20 minutes to dissolve formazan crystals formed. 100 µl of the resulting solution was added to a 96-well plate and its absorbance was measured at 570 nm with enzyme-linked immunosorbent assay (ELISA).

Data set [1] can be described thus: Cytotoxicity test (MTT, cell growth effect). It counts as cell-based. The note with it: human fibroblasts, MTT absorbance at 570 nm relative to purified water control (=100). How it is done:
as §1

Data set [2] relates to Human fibroblasts (primary cell line, CCD-986sk). The note with it: 100 µM, 24 hours, CCD-986sk fibroblasts, PIP ELISA absorbance at 450 nm relative to purified water control (=100). On the technique in general: ELISA stands for enzyme-linked immunosorbent assay.
Description: Human fibroblasts (primary cell line, CCD-986sk) were seeded to a plate and cultured in Dulbecco's modified Eagle's medium (DMEM) supplemented with penicillin (100 IU/ml), streptomycin (100µg/ml) and 10% fetal bovine serum (FBS) at 37 °C with 5% CO2.
The cultured cells were divided to a 48-well plate in 5×10^4 cells/well and cultured for 24 hours. […] The amount of collagen generated in the culture solution was measured with procollagen type I C-peptide (PIP) (Takara, MK101) ELISA.
After 100 µℓ of antibody-PoD conjugate solution was added to each well, 20 µℓ of the culture solution diluted to 1/5 and standard solution were added and cultured at 37 °C for 3 hours. Then, each well was washed four times with 400 µℓ of PBS. 100 µℓ of color coupler was added and cultured at room temperature for 15 minutes. Then, 100 µℓ of IN sulfuric acid was added and the absorbance was measured at 450 nm with a ELISA reader.
Collagen generation activity = (Absorbance of peptide treated group)/(Absorbance of control) X 100 [formula]
A further data set relates to iNOS. In words: Anti-inflammatory activity test (iNOS activity inhibition test; nitric oxide by Griess reagent after LPS). It counts as cell-based, murine. The note with it: Mus musculus; amount of nitric oxide produced relative to group treated with LPS only (=100); 100 µM pre-treatment 18 hours, then LPS 24 hours, Raw264.7 cells; read-out: Yields (%). How it is done:
Raw264.7 cells (murine macrophage cell line) were suspended in 10% fetal bovine serum-Dulbecco's modified Eagle's medium (FBS-DMEM) without […] (GIBCO) in […] and seed to a 24-well plate.
Then, […] of lipopolysaccharide (LPS, Sigma) was added and cultured for 24 hours. Afterwards, 100µℓ of the obtained supernatant was added to a 96-well plate and the same amount of Griess reagent (Sigma) was added, followed by light vortexing at room temperature for 10 minutes. The absorbance was measured at 570 nm.
The calibration curve was prepared using sodium nitrite as a standard, and the amount of nitric oxide produced in the culture solution was calculated. […]
For orientation: Griess reagent forms a coloured azo dye with nitrite.

Residues, ends and D or L forms follow the SMILES beside them.

With `C[C@@H](O)[C@H](NC(=O)[C@H](CCCCN)NC(=O)c1cccnc1)C(=O)N[C@H](C(=O)N[C@@H](CCCCN)C(=O)N[C@@H](CO)C(=O)O)[C@@H](C)O` [Comparative Example 2, nicotinoyl-pentapeptide (lysyl-threonyl-threonyl-lysyl-serine (SEQ ID No:12))] (HELM PEPTIDE1{[O=C(c1cccnc1)[*:2]].K.T.T.K.S}$$$$V2.0), the “Cell Growth Effect (%)” value in the data set with Human fibroblasts was determined as 97.6%.

On to `CC(C)C[C@H](NC(=O)[C@H](Cc1ccccc1)NC(=O)CNC(=O)CNC(=O)[C@H](Cc1ccc(O)cc1)NC(=O)c1cccnc1)C(=O)O` [Example 2, nicotinoyl-pentapeptide (tyrosyl-glycyl-glycyl-Phenylalanyl-leucine (SEO ID No:2))], for which the “Cell Growth Effect (%)” value in the data set on Human fibroblasts stood at 101.3%.

`O=C(O)CNC(=O)[C@H](CS)NC(=O)CC[C@H](NC(=O)c1cccnc1)C(=O)O` [Comparative Example 1, nicotinoyl-tripeptide (γ-glutamyl-cysteinyl-glycine (SEO ID No:13))]: in the data set with Human fibroblasts, the “Cell Growth Effect (%)” value is reported as 98.3%.

As to `O=C(O)c1cccnc1` [Nicotinic acid], in data set [1], the viability – broadly, a read-out of living cells in per cent, often relative to untreated cells – at 24 h, 100 µM was determined as 102%. Also, in data set [2], the “Collagen Generation Activity (%)” value amounted to 105.2%. The activity at 100 µM in the data set with iNOS was 98.8%.

In the case of `CC(C)C[C@H](NC(=O)[C@H](Cc1ccccc1)NC(=O)CNC(=O)CNC(=O)[C@H](Cc1ccc(O)cc1)NC(=O)c1cccnc1)C(=O)N[C@@H](CCCNC(=N)N)C(=O)N[C@@H](CCCCN)C(=O)N[C@@H](Cc1ccc(O)cc1)C(=O)N1CCC[C@H]1C(=O)O` [Example 3, nicotinoyl-nonapeptide (tyrosyl-glycyl-glycyl-phenylalanyl-leucyl-arginyl-lysyl-tyrosyl-proline (SEQ ID No:3))] (HELM PEPTIDE1{[O=C(c1cccnc1)[*:2]].Y.G.G.F.L.R.K.Y.P}$$$$V2.0), the “Cell Growth Effect (%)” value in the data set with Human fibroblasts came out at 99.1%.

Consider `CC(C)C[C@H](NC(=O)[C@H](Cc1ccccc1)NC(=O)CNC(=O)CNC(=O)[C@H](Cc1ccc(O)cc1)NC(=O)c1cccnc1)C(=O)N[C@@H](CCCNC(=N)N)C(=O)N[C@@H](CCCCN)C(=O)N[C@@H](Cc1ccc(O)cc1)C(=O)N1CCC[C@H]1C(=O)N[C@@H](CCCCN)C(=O)O` [Example 4, nicotinoyl-decapeptide (tyrosyl-glycyl-glycyl-phenylalanyl-leucyl-arginyl-lysyl-tyrosyl-prolyl-lycine (SEQ ID No:4))] (HELM PEPTIDE1{[O=C(c1cccnc1)[*:2]].Y.G.G.F.L.R.K.Y.P.K}$$$$V2.0), for which the “Cell Growth Effect (%)” value in the data set on Human fibroblasts worked out at 98.8%.

As to `NC(=O)c1cccnc1` [Nicotinamide], in data set [1], the viability at 24 h, 100 µM was determined as 103%. Further, the “Collagen Generation Activity (%)” value in data set [2] is given as 108.8%. Also, in the data set with iNOS, the activity at 100 µM was found to be 96.1%.

Turning to `CSCC[C@H](NC(=O)[C@H](Cc1ccccc1)NC(=O)CNC(=O)CNC(=O)[C@H](Cc1ccc(O)cc1)NC(=O)c1cccnc1)C(=O)O` [Example 1, nicotinoyl-pentapeptide (tyrosyl-glycyl-glycyl-phenylalanyl-methionine (SEQ ID No:1))], in the data set with Human fibroblasts, the “Cell Growth Effect (%)” value was found to be 102.1%.
